Results reported in patent publication US10981911B2, “Imidazopyrrolopyridine as inhibitors of the JAK family of kinases” (Janssen Pharmaceutica NV, priority 2016, dated 2021).

What was measured:
Assay type in all cases: biochemical
[1] = target: JAK3-JH1JH2 (Homo sapiens (Human), UniProt P52333); test: Enzymatic inhibition assay (RapidFire HTMS), JAK3; conditions: 150 μM ATP, 40 μM substrate
Method in brief: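 Compounds tested in duplicate over 11-point 1:3 or 1:4 dilution series; no-enzyme wells as negative control. After 45 min at 25 °C, TFA quench with internal standard, and phosphorylated product quantified by RapidFire–QTrap mass spectrometry relative to the uninhibited reaction.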

[2] = target: JAK2-JH1JH2 (Homo sapiens (Human), UniProt O60674); test: Enzymatic inhibition assay (RapidFire HTMS), JAK2; conditions: 30 μM ATP, 40 μM substrate
Sequence of JAK2-JH1JH2 (O60674 532-1132): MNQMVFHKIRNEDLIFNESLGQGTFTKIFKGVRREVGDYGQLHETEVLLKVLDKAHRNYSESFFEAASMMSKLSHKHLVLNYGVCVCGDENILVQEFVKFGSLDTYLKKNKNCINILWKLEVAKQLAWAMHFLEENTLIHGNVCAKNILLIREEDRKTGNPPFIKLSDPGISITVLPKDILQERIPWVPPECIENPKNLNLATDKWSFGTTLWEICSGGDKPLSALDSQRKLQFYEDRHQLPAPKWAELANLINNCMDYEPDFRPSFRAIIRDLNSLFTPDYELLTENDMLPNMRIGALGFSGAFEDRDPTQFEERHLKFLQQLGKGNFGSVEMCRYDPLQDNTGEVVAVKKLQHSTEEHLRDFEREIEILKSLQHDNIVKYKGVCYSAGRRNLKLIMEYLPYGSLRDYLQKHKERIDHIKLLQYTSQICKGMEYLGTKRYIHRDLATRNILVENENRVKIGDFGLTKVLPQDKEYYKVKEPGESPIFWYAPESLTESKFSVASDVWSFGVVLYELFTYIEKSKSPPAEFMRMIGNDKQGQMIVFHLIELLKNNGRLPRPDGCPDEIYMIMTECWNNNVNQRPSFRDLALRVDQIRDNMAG
Method in brief: (§1)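 Quenched with 0.5% TFA plus internal-standard peptide; phosphorylated product quantified by RapidFire C4 SPE–ESI-MS, 11-point 1:3 or 1:4 dilutions in duplicate.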

[3] = target: JAK1-JH1JH2 (Homo sapiens (Human), UniProt P23458); test: Enzymatic inhibition assay (RapidFire HTMS), JAK1; conditions: 12.5 μM ATP, 200 μM substrate; read-out: JAK1-JH2JH1 IC50
Sequence of JAK1-JH1JH2 (P23458 574-1154): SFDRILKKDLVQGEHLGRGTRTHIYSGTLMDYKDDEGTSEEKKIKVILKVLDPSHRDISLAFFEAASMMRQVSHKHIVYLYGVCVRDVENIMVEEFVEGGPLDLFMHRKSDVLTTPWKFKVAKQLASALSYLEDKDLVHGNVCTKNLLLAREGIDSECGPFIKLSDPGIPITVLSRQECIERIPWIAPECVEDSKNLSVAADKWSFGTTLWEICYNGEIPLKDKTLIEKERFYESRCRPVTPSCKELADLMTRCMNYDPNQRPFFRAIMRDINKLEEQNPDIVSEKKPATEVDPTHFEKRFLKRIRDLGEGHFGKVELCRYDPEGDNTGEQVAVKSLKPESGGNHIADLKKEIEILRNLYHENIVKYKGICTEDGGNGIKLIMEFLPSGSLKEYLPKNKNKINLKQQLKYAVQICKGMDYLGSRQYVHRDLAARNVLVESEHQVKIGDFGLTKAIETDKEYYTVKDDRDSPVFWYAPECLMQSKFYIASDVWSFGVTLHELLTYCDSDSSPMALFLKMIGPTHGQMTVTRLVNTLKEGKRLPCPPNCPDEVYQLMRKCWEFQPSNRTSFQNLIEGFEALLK
Method in brief: as §1

[4] = target: Tyk2-JH1JH2 (Homo sapiens (Human), UniProt P29597, C1142A/C936A); test: Enzymatic inhibition assay (RapidFire HTMS), Tyk2; conditions: 50 μM ATP, 200 μM substrate
Sequence of Tyk2-JH1JH2 (P29597 580-1182 C936A/C1142A): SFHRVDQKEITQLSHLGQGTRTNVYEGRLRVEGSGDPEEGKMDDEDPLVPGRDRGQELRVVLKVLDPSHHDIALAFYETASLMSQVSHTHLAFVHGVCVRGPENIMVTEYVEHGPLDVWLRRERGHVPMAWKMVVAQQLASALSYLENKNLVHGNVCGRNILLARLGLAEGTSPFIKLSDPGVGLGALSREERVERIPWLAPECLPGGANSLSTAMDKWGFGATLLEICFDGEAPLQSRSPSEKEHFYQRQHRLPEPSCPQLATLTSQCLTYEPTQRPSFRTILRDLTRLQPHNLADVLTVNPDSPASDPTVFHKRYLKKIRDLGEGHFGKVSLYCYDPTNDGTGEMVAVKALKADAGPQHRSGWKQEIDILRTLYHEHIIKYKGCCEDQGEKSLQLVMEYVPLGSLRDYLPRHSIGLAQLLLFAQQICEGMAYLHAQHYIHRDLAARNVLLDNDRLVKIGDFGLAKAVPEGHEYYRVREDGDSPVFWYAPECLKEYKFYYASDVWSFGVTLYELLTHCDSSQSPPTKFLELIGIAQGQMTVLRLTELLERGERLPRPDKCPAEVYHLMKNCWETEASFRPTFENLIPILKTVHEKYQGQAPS
Method in brief: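 Compounds were tested in duplicate as 11-point 1:3 or 1:4 DMSO dilutions (≤0.25% DMSO final) in 20 μL reactions at 25 °C for 90 min, with Tyk2 pre-incubated 30 min with 2 mM ATP. Reactions were quenched with TFA plus internal standard peptide, and phosphorylated product was quantified by RapidFire C4 SPE–ESI MS.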

Sequence of JAK3-JH1JH2 (P52333 512-1124): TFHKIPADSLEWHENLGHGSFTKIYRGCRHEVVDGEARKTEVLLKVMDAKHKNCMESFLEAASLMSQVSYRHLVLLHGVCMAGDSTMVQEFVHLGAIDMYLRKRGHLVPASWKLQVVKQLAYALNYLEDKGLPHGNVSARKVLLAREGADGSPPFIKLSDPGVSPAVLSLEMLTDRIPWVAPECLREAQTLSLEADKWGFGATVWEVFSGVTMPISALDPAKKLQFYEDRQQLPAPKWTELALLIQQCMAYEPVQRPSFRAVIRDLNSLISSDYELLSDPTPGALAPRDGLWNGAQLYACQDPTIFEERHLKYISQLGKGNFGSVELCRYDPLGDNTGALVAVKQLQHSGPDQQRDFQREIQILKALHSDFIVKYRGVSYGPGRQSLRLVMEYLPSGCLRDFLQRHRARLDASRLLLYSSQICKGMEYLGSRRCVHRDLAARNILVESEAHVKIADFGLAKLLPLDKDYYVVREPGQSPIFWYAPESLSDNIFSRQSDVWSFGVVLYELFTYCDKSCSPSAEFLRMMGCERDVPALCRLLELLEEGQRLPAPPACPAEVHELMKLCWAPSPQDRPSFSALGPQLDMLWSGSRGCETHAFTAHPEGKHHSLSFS

Compound	IC50 [1] [µM]	IC50 [2] [µM]	IC50 [3] [µM]	IC50 [4] [µM]
N#CCC12CCC(n3c(CC(N)=O)nc4cnc5[nH]ccc5c43)(CC1)CC2 [Ex. 206, 2-(1-(4-(Cyanomethyl)bicyclo[2.2.2]octan-1-yl)-1,6-dihydroimidazo[4,5-d]pyrrolo[2,3-b]pyridin-2-yl)acetamide]	0.881	0.21	0.0056	0.158
N#CC[C@H]1CC[C@H](n2c(CC(=O)NCC34CC5CC(CC(C5)C3)C4)nc3cnc4[nH]ccc4c32)CC1 [Ex. 199, N-((3R,5R,7R)-Adamantan-1-ylmethyl)-2-(1-((1r,4r)-4-(cyanomethyl)cyclohexyl)-1,6-dihydroimidazo[4,5-d]pyrrolo[2,3-b]pyridin-2-yl)acetamide]	0.109	0.0036	< 0.004	0.0079
N#CC[C@H]1CC[C@H](n2c(CNS(=O)(=O)c3ccccc3)nc3cnc4[nH]ccc4c32)CC1 [Ex. 77, N-((1-((1r,4r)-4-(Cyanomethyl)cyclohexyl)-1,6-dihydroimidazo[4,5-d]pyrrolo[2,3-b]pyridin-2-yl)methyl)benzenesulfonamide]	1.91	0.0394	0.0004	0.0223
N#CC[C@H]1CC[C@H](n2c(CO/N=C(\N)CC3CC3)nc3cnc4[nH]ccc4c32)CC1 [Ex. 112, (Z)—N-((1-((1r,4r)-4-(Cyanomethyl)cyclohexyl)-1,6-dihydroimidazo[4,5-d]pyrrolo[2,3-b]pyridin-2-yl)methoxy)-2-cyclopropylacetimidamide]	0.161	0.0036	0.0006	0.0408
CN1CCC(NC(=O)Cc2nc3cnc4[nH]ccc4c3n2[C@H]2CC[C@H](CC#N)CC2)CC1 [Ex. 66, 2-(1-((1r,4r)-4-(Cyanomethyl)cyclohexyl)-1,6-dihydroimidazo[4,5-d]pyrrolo[2,3-b]pyridin-2-yl)-N-(1-methylpiperidin-4-yl)acetamide]	0.0189	0.0025	0.0003	0.0028
N#CC[C@H]1CC[C@H](n2c(-c3ccc(C(=O)c4ccccc4)cc3)nc3cnc4[nH]ccc4c32)CC1 [Ex. 92, 2-((1r,4r)-4-(2-(4-Benzoylphenyl)imidazo[4,5-d]pyrrolo[2,3-b]pyridin-1(6H)-yl)cyclohexyl)acetonitrile]	0.874	0.0117	0.0004	0.0336
N#CC[C@H]1CC[C@H](n2c(CC(=O)NCc3ccc(C#N)cc3)nc3cnc4[nH]ccc4c32)CC1 [Ex. 39, N-(4-Cyanobenzyl)-2-(1-((1r,4r)-4-(cyanomethyl)cyclohexyl)-1,6-dihydroimidazo[4,5-d]pyrrolo[2,3-b]pyridin-2-yl)acetamide]	0.142	0.0053	0.0002	0.01
N#CC[C@H]1CC[C@H](n2c(C(=O)N3CCOCC3)nc3cnc4[nH]ccc4c32)CC1 [Ex. 180, 2-((1r,4r)-4-(2-(Morpholine-4-carbonyl)imidazo[4,5-d]pyrrolo[2,3-b]pyridin-1(6H)-yl)cyclohexyl)acetonitrile]	2.29	0.149	0.0034	0.129
N#CC[C@H]1CC[C@H](n2c(CO/N=C(\N)C34CC5CC(CC(C5)C3)C4)nc3cnc4[nH]ccc4c32)CC1 [Ex. 152, (3R,5R,7R,E*)-N′-((1-((1r,4r)-4-(Cyanomethyl)cyclohexyl)-1,6-dihydroimidazo[4,5-d]pyrrolo[2,3-b]pyridin-2-yl)methoxy)adamantane-1-carboximidamide]	0.803	0.0212	0.0028	0.0535
N#CC[C@H]1CC[C@H](n2c(CC(=O)N3CCC(N4CCOCC4)CC3)nc3cnc4[nH]ccc4c32)CC1 [Ex. 26, 2-((1r,4r)-4-(2-(2-(4-Morpholinopiperidin-1-yl)-2-oxoethyl)imidazo[4,5-d]pyrrolo[2,3-b]pyridin-1(6H)-yl)cyclohexyl)acetonitrile]	0.106	0.0061	0.0001	0.0027
N#CC[C@H]1CC[C@H](n2c(CC(=O)N3CC[C@@H](O)C3)nc3cnc4[nH]ccc4c32)CC1 [Ex. 127, 2-((1r,4r)-4-(2-(2-((R)-3-Hydroxypyrrolidin-1-yl)-2-oxoethyl)imidazo[4,5-d]pyrrolo[2,3-b]pyridin-1(6H)-yl)cyclohexyl)acetonitrile]	0.788	0.0694	0.0007	0.0128
N#CC[C@H]1CC[C@H](n2c(CNC(=O)c3ccc(C#N)cc3)nc3cnc4[nH]ccc4c32)CC1 [Ex. 82, 4-Cyano-N-((1-((1r,4r)-4-(cyanomethyl)cyclohexyl)-1,6-dihydroimidazo[4,5-d]pyrrolo[2,3-b]pyridin-2-yl)methyl)benzamide]	0.189	0.0136	0.0004	0.0052
N#CC[C@H]1CC[C@H](n2c(CC(=O)N[C@H]3CC[C@H](CO)CC3)nc3cnc4[nH]ccc4c32)CC1 [Ex. 27, 2-(1-((1r,4r)-4-(Cyanomethyl)cyclohexyl)-1,6-dihydroimidazo[4,5-d]pyrrolo[2,3-b]pyridin-2-yl)-N-((1r,4r)-4-(hydroxymethyl)cyclohexyl)acetamide]	0.0369	0.0029	0.0001	0.0072
COCCOCCOCc1nc2cnc3[nH]ccc3c2n1[C@H]1CC[C@H](CC#N)CC1 [Ex. 194, 2-((1r,4r)-4-(2-((2-(2-methoxyethoxy)ethoxy)methyl)imidazo[4,5-d]pyrrolo[2,3-b]pyridin-1(6H)-yl)cyclohexyl)acetonitrile]	1.46	0.133	0.0094	0.0725
C#Cc1ccc(C(=O)c2ccc(CCc3nc4cnc5[nH]ccc5c4n3[C@H]3CC[C@H](CC#N)CC3)cc2)cc1 [Ex. 170, 2-((1r,4r)-4-(2-(4-(4-Ethynylbenzoyl)phenethyl)imidazo[4,5-d]pyrrolo[2,3-b]pyridin-1(6H)-yl)cyclohexyl)acetonitrile]	> 12.5	0.0809	0.0015	0.0264
N#CC[C@H]1CC[C@H](n2c(CC(=O)NCc3cnccn3)nc3cnc4[nH]ccc4c32)CC1 [Ex. 35, 2-(1-((1r,4r)-4-(Cyanomethyl)cyclohexyl)-1,6-dihydroimidazo[4,5-d]pyrrolo[2,3-b]pyridin-2-yl)-N-(pyrazin-2-ylmethyl)acetamide]	0.107	0.0036	0.0002	0.0045
N#CC[C@H]1CC[C@H](n2c(-c3cnc(N)nc3)nc3cnc4[nH]ccc4c32)CC1 [Ex. 51, 2-((1r,4r)-4-(2-(2-Aminopyrimidin-5-yl)imidazo[4,5-d]pyrrolo[2,3-b]pyridin-1(6H)-yl)cyclohexyl)acetonitrile]	0.127	0.0032	0.0002	0.0058
N#CC[C@H]1CC[C@H](n2c(-c3cccnc3N)nc3cnc4[nH]ccc4c32)CC1 [Ex. 186, 2-((1r,4r)-4-(2-(2-aminopyridin-3-yl)imidazo[4,5-d]pyrrolo[2,3-b]pyridin-1(6H)-yl)cyclohexyl)acetonitrile]	4.65	0.0822	0.0037	0.254
N#CC[C@H]1CC[C@H](n2c(-c3cc[nH]n3)nc3cnc4[nH]ccc4c32)CC1 [Ex. 60, 2-((1r,4r)-4-(2-(1H-Pyrazol-3-yl)imidazo[4,5-d]pyrrolo[2,3-b]pyridin-1(6H)-yl)cyclohexyl)acetonitrile]	0.072	0.0017	0.0003	0.0034
N#CC[C@H]1CC[C@H](n2c(-c3ccnc(N)n3)nc3cnc4[nH]ccc4c32)CC1 [Ex. 53, 2-((1r,4r)-4-(2-(2-Aminopyrimidin-4-yl)imidazo[4,5-d]pyrrolo[2,3-b]pyridin-1(6H)-yl)cyclohexyl)acetonitrile]	0.0618	0.0032	0.0002	0.009
CS(C)(=O)=NCc1nc2cnc3[nH]ccc3c2n1[C@H]1CC[C@H](CC#N)CC1 [Ex. 142, 2-((1r,4r)-4-(2-(((Dimethyl(oxo)-λ^6-sulfanylidene)amino)methyl)imidazo[4,5-d]pyrrolo[2,3-b]pyridin-1(6H)-yl)cyclohexyl)acetonitrile]	0.383	0.01	0.0009	0.0069
N#CC[C@H]1CC[C@H](n2c(CC(=O)NC3CCCCC3)nc3cnc4[nH]ccc4c32)CC1 [Ex. 28, 2-(1-((1r,4r)-4-(Cyanomethyl)cyclohexyl)-1,6-dihydroimidazo[4,5-d]pyrrolo[2,3-b]pyridin-2-yl)-N-cyclohexylacetamide]	0.0327	0.0024	0.0001	0.0035
CC(=O)N1CCC(c2nc3cnc4[nH]ccc4c3n2[C@H]2CC[C@H](CC#N)CC2)CC1 [Ex. 164, 2-((1r,4r)-4-(2-(1-Acetylpiperidin-4-yl)imidazo[4,5-d]pyrrolo[2,3-b]pyridin-1(6H)-yl)cyclohexyl)acetonitrile]	2.15	0.125	0.0016	0.174
N#CC[C@H]1CC[C@H](n2c(CC(=O)N3CCCC3)nc3cnc4[nH]ccc4c32)CC1 [Ex. 49, 2-((1r,4r)-4-(2-(2-Oxo-2-(pyrrolidin-1-yl)ethyl)imidazo[4,5-d]pyrrolo[2,3-b]pyridin-1(6H)-yl)cyclohexyl)acetonitrile]	0.249	0.0435	0.0002	0.0042
